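Method: 48-hour compound exposure of cells in 96-well plates, five concentrations, linear interpolation of endpoints. The concentration for 50% growth inhibition is given as GI50.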 The source made the active and inactive calls. No stated cut-off is given here; in the data, active = GI50 up to about 1.1 µM and inactive = higher.
Assays:
Test in all cases: DTP human tumour cell line panel, 48 h
[1] = system: 786-0
[2] = system: A549
[3] = system: ACHN
[4] = system: BT-549
[5] = system: CAKI-1
[6] = system: CCRF-CEM
[7] = system: COLO 205
[8] = system: DU-145
[9] = system: EKVX
[10] = system: HCC 2998
[11] = system: HCT-116
[12] = system: HCT-15
[13] = system: HL-60
[14] = system: HOP-62
[15] = system: HOP-92
[16] = system: HT-29
[17] = system: Hs-578T
[18] = system: IGROV-1
[19] = system: K562
[20] = system: KM12
[21] = system: LOX IMVI
[22] = system: M14
[23] = system: MDA-MB-231
[24] = system: MDA-MB-435
[25] = system: MDA-N
[26] = system: MOLT-4
[27] = system: Malme-3M
[28] = system: NCI-H226
[29] = system: NCI-H23
[30] = system: NCI-H460
[31] = system: NCI-H522
[32] = system: NCI/ADR-RES
[33] = system: OVCAR-3
[34] = system: OVCAR-4
[35] = system: OVCAR-5
[36] = system: OVCAR-8
[37] = system: PC-3
[38] = system: RPMI-8226
[39] = system: RXF 393
[40] = system: SF-268
[41] = system: SF-295
[42] = system: SF-539
[43] = system: SK-MEL-28
[44] = system: SK-MEL-2
[45] = system: SK-OV-3
[46] = system: SN12C
[47] = system: SNB-19
[48] = system: SNB-75
[49] = system: SW-620
[50] = system: T47D
[51] = system: U-251
[52] = system: UACC-257
[53] = system: UACC-62
[54] = system: UO-31
[55] = system: A498
[56] = system: MCF7
[57] = system: SK-MEL-5
[58] = system: SR
[59] = system: TK-10

CN1CCN(c2ccc3nc(-c4cc(O)c5c(nc(CO)n5C)c4O)[nH]c3n2)CC1
GI50 [1]: 52.6 µM (inactive) | GI50 [2]: 69.2 µM (inactive) | GI50 [3]: 36.1 µM (inactive) | GI50 [4]: > 100 µM (inactive) | GI50 [5]: > 100 µM (inactive) | GI50 [6]: 18.8 µM (inactive) | GI50 [7]: 15.9 µM (inactive) | GI50 [8]: 43.8 µM (inactive) | GI50 [9]: 22.9 µM (inactive) | GI50 [10]: 39.9 µM (inactive) | GI50 [11]: 41.9 µM (inactive) | GI50 [12]: > 100 µM | GI50 [13]: 16.4 µM (inactive) | GI50 [14]: 52 µM (inactive) | GI50 [15]: > 100 µM (inactive) | GI50 [16]: 31.3 µM (inactive) | GI50 [17]: > 100 µM (inactive) | GI50 [18]: 64.6 µM (inactive) | GI50 [19]: 28.8 µM (inactive) | GI50 [20]: 54.2 µM (inactive) | GI50 [21]: 17.1 µM (inactive) | GI50 [22]: 34.7 µM (inactive) | GI50 [23]: 22.4 µM (inactive) | GI50 [24]: 18.7 µM (inactive) | GI50 [25]: 34.2 µM (inactive) | GI50 [26]: 17.6 µM (inactive) | GI50 [27]: 18.4 µM (inactive) | GI50 [28]: 22.7 µM (inactive) | GI50 [29]: 64.3 µM (inactive) | GI50 [30]: 55.6 µM (inactive) | GI50 [31]: 20.1 µM (inactive) | GI50 [32]: > 100 µM (inactive) | GI50 [33]: 26.1 µM (inactive) | GI50 [34]: 19.5 µM (inactive) | GI50 [35]: > 100 µM (inactive) | GI50 [36]: 28.6 µM (inactive) | GI50 [37]: 32.3 µM (inactive) | GI50 [38]: 22.6 µM (inactive) | GI50 [39]: 28.7 µM (inactive) | GI50 [40]: 48.1 µM (inactive) | GI50 [41]: > 100 µM (inactive) | GI50 [42]: 17.4 µM (inactive) | GI50 [43]: > 100 µM (inactive) | GI50 [44]: 11 µM (inactive) | GI50 [45]: > 100 µM (inactive) | GI50 [46]: 16.7 µM (inactive) | GI50 [47]: 52.2 µM (inactive) | GI50 [48]: 20.6 µM (inactive) | GI50 [49]: 39.2 µM (inactive) | GI50 [50]: 18.7 µM (inactive) | GI50 [51]: 15.1 µM (inactive) | GI50 [52]: 34.7 µM (inactive) | GI50 [53]: 11.6 µM (inactive) | GI50 [54]: 55.1 µM (inactive)

CCN(CC)C1Oc2cc3c(cc2C(c2cccc(OC)c2OC)C1C)OCO3 (stereo not drawn)
GI50 [1]: 4.16 µM (inactive) | GI50 [55]: 5.81 µM (inactive) | GI50 [2]: 4.46 µM (inactive) | GI50 [3]: 3.22 µM (inactive) | GI50 [4]: 3.4 µM (inactive) | GI50 [5]: 2.82 µM (inactive) | GI50 [6]: 2.17 µM (inactive) | GI50 [7]: 3.85 µM (inactive) | GI50 [8]: 3.23 µM (inactive) | GI50 [9]: 13.1 µM (inactive) | GI50 [10]: 11.3 µM (inactive) | GI50 [11]: 2.79 µM (inactive) | GI50 [12]: 3.93 µM | GI50 [13]: 1.88 µM (inactive) | GI50 [14]: 10.8 µM (inactive) | GI50 [16]: 3.65 µM (inactive) | GI50 [17]: 3.66 µM (inactive) | GI50 [18]: 4.58 µM (inactive) | GI50 [19]: 3.05 µM (inactive) | GI50 [20]: 4.9 µM (inactive) | GI50 [21]: 3.66 µM (inactive) | GI50 [22]: 12.1 µM (inactive) | GI50 [56]: 5.08 µM (inactive) | GI50 [23]: 13.3 µM (inactive) | GI50 [24]: 10.1 µM (inactive) | GI50 [25]: 8.59 µM (inactive) | GI50 [26]: 4.01 µM (inactive) | GI50 [27]: 8.51 µM (inactive) | GI50 [28]: 2.05 µM (inactive) | GI50 [29]: 8.47 µM (inactive) | GI50 [30]: 3.63 µM (inactive) | GI50 [31]: 4.13 µM (inactive) | GI50 [33]: 2.7 µM (inactive) | GI50 [35]: 13 µM (inactive) | GI50 [36]: 3.56 µM (inactive) | GI50 [37]: 4.03 µM (inactive) | GI50 [38]: 1.48 µM (inactive) | GI50 [39]: 2.23 µM (inactive) | GI50 [40]: 7.91 µM (inactive) | GI50 [41]: 3.16 µM (inactive) | GI50 [42]: 10.2 µM (inactive) | GI50 [43]: 14.9 µM (inactive) | GI50 [44]: 6.07 µM (inactive) | GI50 [57]: 6.84 µM (inactive) | GI50 [45]: 4.53 µM (inactive) | GI50 [46]: 5.4 µM (inactive) | GI50 [47]: 8.07 µM (inactive) | GI50 [48]: 6.03 µM (inactive) | GI50 [58]: 0.729 µM (active) | GI50 [49]: 4.24 µM (inactive) | GI50 [50]: 3.42 µM (inactive) | GI50 [59]: 5.77 µM (inactive) | GI50 [51]: 4.33 µM (inactive) | GI50 [52]: 3.95 µM (inactive) | GI50 [53]: 11.4 µM (inactive) | GI50 [54]: 4.21 µM (inactive)

Cc1cnc2cc(Cl)ccc2c1SCC(=O)O
GI50 [1]: > 100 µM (inactive) | GI50 [55]: > 100 µM (inactive) | GI50 [2]: > 100 µM (inactive) | GI50 [3]: > 100 µM (inactive) | GI50 [4]: > 100 µM (inactive) | GI50 [5]: > 100 µM (inactive) | GI50 [6]: > 100 µM (inactive) | GI50 [8]: > 100 µM (inactive) | GI50 [9]: > 100 µM (inactive) | GI50 [11]: > 100 µM (inactive) | GI50 [12]: > 100 µM | GI50 [13]: > 100 µM (inactive) | GI50 [14]: > 100 µM (inactive) | GI50 [15]: > 100 µM (inactive) | GI50 [16]: > 100 µM (inactive) | GI50 [17]: 93.5 µM (inactive) | GI50 [18]: > 100 µM (inactive) | GI50 [19]: > 100 µM (inactive) | GI50 [20]: > 100 µM (inactive) | GI50 [21]: > 100 µM (inactive) | GI50 [22]: > 100 µM (inactive) | GI50 [23]: > 100 µM (inactive) | GI50 [24]: > 100 µM (inactive) | GI50 [25]: > 100 µM (inactive) | GI50 [26]: > 100 µM (inactive) | GI50 [27]: > 100 µM (inactive) | GI50 [28]: > 100 µM (inactive) | GI50 [29]: > 100 µM (inactive) | GI50 [30]: > 100 µM (inactive) | GI50 [31]: > 100 µM (inactive) | GI50 [32]: > 100 µM (inactive) | GI50 [33]: > 100 µM (inactive) | GI50 [34]: > 100 µM (inactive) | GI50 [35]: > 100 µM (inactive) | GI50 [36]: > 100 µM (inactive) | GI50 [37]: > 100 µM (inactive) | GI50 [38]: > 100 µM (inactive) | GI50 [39]: > 100 µM (inactive) | GI50 [40]: > 100 µM (inactive) | GI50 [41]: > 100 µM (inactive) | GI50 [43]: > 100 µM (inactive) | GI50 [44]: > 100 µM (inactive) | GI50 [57]: > 100 µM (inactive) | GI50 [46]: > 100 µM (inactive) | GI50 [47]: > 100 µM (inactive) | GI50 [58]: > 100 µM (inactive) | GI50 [49]: > 100 µM (inactive) | GI50 [50]: > 100 µM (inactive) | GI50 [59]: > 100 µM (inactive) | GI50 [51]: > 100 µM (inactive) | GI50 [52]: > 100 µM (inactive) | GI50 [53]: > 100 µM (inactive) | GI50 [54]: > 100 µM (inactive)

Source: ChEMBL document CHEMBL1201862, “PubChem BioAssay data set” (2004)
